Measured values published in PubChem BioAssay AID1259407 (Chemical Carcinogenesis Research Information System (CCRIS), 2018).
Active and inactive are the calls of the source. The rule behind the calls is not given here.

System: CCRIS mutagenicity, Ames/micronucleus/aberration tests
Test: CCRIS mutagenicity studies
[1] = Test System: AMES SALMONELLA TYPHIMURIUM, Strain/Indicator: TA98, Metabolic Activation: NONE, Method: PREINCUBATION
[2] = Test System: AMES SALMONELLA TYPHIMURIUM, Strain/Indicator: TA98, Metabolic Activation: NONE, Method: STANDARD PLATE
[3] = Test System: AMES SALMONELLA TYPHIMURIUM, Strain/Indicator: TA100, Metabolic Activation: NONE, Method: STANDARD PLATE
[4] = Test System: AMES SALMONELLA TYPHIMURIUM, Strain/Indicator: TA100, Metabolic Activation: NONE, Method: PREINCUBATION
[5] = Test System: AMES SALMONELLA TYPHIMURIUM, Strain/Indicator: TA104, Metabolic Activation: NONE, Method: PREINCUBATION

CC(=O)Nc1ccc(Nc2ccc([N+](=O)[O-])cc2)cc1
mutagenic call (Test System: AMES SALMONELLA TYPHIMURIUM, Strain/Indicator: TA98(NR), Metabolic Activation: NONE, Method: PREINCUBATION): inactive; negative
mutagenic call [1]: active; positive
mutagenic call (Test System: AMES SALMONELLA TYPHIMURIUM, Strain/Indicator: TA98, Metabolic Activation: RAT, LIVER, S-9, AROCLOR 1254, Method: PREINCUBATION): active; positive

COc1cc(N)ccc1NC(C)=O
mutagenic call [2]: inactive; negative
mutagenic call (Test System: AMES SALMONELLA TYPHIMURIUM, Strain/Indicator: TA98, Metabolic Activation: RAT, LIVER, S-9, AROCLOR 1254, Method: STANDARD PLATE): active; positive

C=C(C#N)C(=O)OCC
mutagenic call [3]: inactive; negative
mutagenic call (Test System: AMES SALMONELLA TYPHIMURIUM, Strain/Indicator: TA100, Metabolic Activation: RAT, LIVER, S-9, AROCLOR 1254, Method: STANDARD PLATE): inactive; negative

C=C(C)C(=O)OCCN(C)C
mutagenic call [1]: inactive; negative
mutagenic call (Test System: AMES SALMONELLA TYPHIMURIUM, Strain/Indicator: TA98, Metabolic Activation: RAT LIVER S-9, PHENOBARBITAL AND BETA-NAPHTHOFLAVONE, Method: PREINCUBATION): inactive; negative
mutagenic call [4]: inactive; negative
mutagenic call (Test System: AMES SALMONELLA TYPHIMURIUM, Strain/Indicator: TA100, Metabolic Activation: RAT LIVER S-9, PHENOBARBITAL AND BETA-NAPHTHOFLAVONE, Method: PREINCUBATION): inactive; negative
mutagenic call (Test System: AMES SALMONELLA TYPHIMURIUM, Strain/Indicator: TA102, Metabolic Activation: NONE, Method: PREINCUBATION): inactive; negative
mutagenic call (Test System: AMES SALMONELLA TYPHIMURIUM, Strain/Indicator: TA102, Metabolic Activation: RAT LIVER S-9, PHENOBARBITAL AND BETA-NAPHTHOFLAVONE, Method: PREINCUBATION): inactive; negative
mutagenic call [5]: inactive; negative
mutagenic call (Test System: AMES SALMONELLA TYPHIMURIUM, Strain/Indicator: TA104, Metabolic Activation: RAT LIVER S-9, PHENOBARBITAL AND BETA-NAPHTHOFLAVONE, Method: PREINCUBATION): active; positive
mutagenic call (Test System: AMES SALMONELLA TYPHIMURIUM, Strain/Indicator: TA1535, Metabolic Activation: NONE, Method: PREINCUBATION): inactive; negative
mutagenic call (Test System: AMES SALMONELLA TYPHIMURIUM, Strain/Indicator: TA1535, Metabolic Activation: RAT LIVER S-9, PHENOBARBITAL AND BETA-NAPHTHOFLAVONE, Method: PREINCUBATION): inactive; negative
mutagenic call (Test System: AMES SALMONELLA TYPHIMURIUM, Strain/Indicator: TA1537, Metabolic Activation: NONE, Method: PREINCUBATION): inactive; negative
mutagenic call (Test System: AMES SALMONELLA TYPHIMURIUM, Strain/Indicator: TA1537, Metabolic Activation: RAT LIVER S-9, PHENOBARBITAL AND BETA-NAPHTHOFLAVONE, Method: PREINCUBATION): inactive; negative
mutagenic call (Test System: E.COLI, Strain/Indicator: WP2UVRA/PKM101, Metabolic Activation: NONE, Method: PREINCUBATION): inactive; negative
mutagenic call (Test System: E.COLI, Strain/Indicator: WP2UVRA/PKM101, Metabolic Activation: RAT LIVER S-9, PHENOBARBITAL AND BETA-NAPHTHOFLAVONE, Method: PREINCUBATION): inactive; negative
mutagenic call (Test System: E.COLI, Strain/Indicator: WP2UVRA, Metabolic Activation: NONE, Method: PREINCUBATION): inactive; negative
mutagenic call (Test System: E.COLI, Strain/Indicator: WP2UVRA, Metabolic Activation: RAT LIVER S-9, PHENOBARBITAL AND BETA-NAPHTHOFLAVONE, Method: PREINCUBATION): inactive; negative

CC(C)=CC1C(C(=O)OC(C#N)c2cccc(Oc3ccccc3)c2)C1(C)C (stereo unspecified)
mutagenic call (Test System: Ames Salmonella typhimurium, Strain/Indicator: TA98, Metabolic Activation: None, Method: Preincubation): inactive; negative
mutagenic call (Test System: Ames Salmonella typhimurium, Strain/Indicator: TA98, Metabolic Activation: Rat, liver, S-9, Method: Preincubation): inactive; negative
mutagenic call (Test System: Ames Salmonella typhimurium, Strain/Indicator: TA100, Metabolic Activation: None, Method: Preincubation): inactive; negative
mutagenic call (Test System: Ames Salmonella typhimurium, Strain/Indicator: TA100, Metabolic Activation: Rat, liver, S-9, Method: Preincubation): inactive; negative
mutagenic call (Test System: Ames Salmonella typhimurium, Strain/Indicator: TA1535, Metabolic Activation: None, Method: Preincubation): inactive; negative
mutagenic call (Test System: Ames Salmonella typhimurium, Strain/Indicator: TA1535, Metabolic Activation: Rat, liver, S-9, Method: Preincubation): inactive; negative
mutagenic call (Test System: Ames Salmonella typhimurium, Strain/Indicator: TA1537, Metabolic Activation: None, Method: Preincubation): inactive; negative
mutagenic call (Test System: Ames Salmonella typhimurium, Strain/Indicator: TA1537, Metabolic Activation: Rat, liver, S-9, Method: Preincubation): inactive; negative
mutagenic call (Test System: Ames Salmonella typhimurium, Strain/Indicator: TA1538, Metabolic Activation: None, Method: Preincubation): inactive; negative
mutagenic call (Test System: Ames Salmonella typhimurium, Strain/Indicator: TA1538, Metabolic Activation: Rat, liver, S-9, Method: Preincubation): inactive; negative
mutagenic call (Test System: E. coli, Strain/Indicator: WP-2 uvrA, Metabolic Activation: None, Method: Preincubation): inactive; negative
mutagenic call (Test System: E. coli, Strain/Indicator: WP-2 uvrA, Metabolic Activation: Rat, liver, S-9, Method: Preincubation): inactive; negative

NC(=S)NNC(N)=S
mutagenic call (End Point: IN VITRO CHROMOSOMAL ABERRATIONS, Test System: CHINESE HAMSTER OVARY CELLS, Metabolic Activation: RAT, LIVER, S-9, AROCLOR 1254): inactive; negative

CCC(=O)OCc1cccc([N+](=O)[O-])c1
mutagenic call [1]: inactive; negative
mutagenic call [4]: inactive; negative
mutagenic call (Test System: AMES SALMONELLA TYPHIMURIUM, Strain/Indicator: TA100, Metabolic Activation: RAT, LIVER, S-9, AROCLOR 1254, Method: PREINCUBATION): inactive; negative

O=Cc1ccc(COS(=O)(=O)O)o1
mutagenic call [2]: inactive; negative
mutagenic call [3]: active; positive
mutagenic call [5]: active; positive

CCC(=O)Nc1snc2ccccc12
mutagenic call [3]: inactive; negative
mutagenic call (Test System: AMES SALMONELLA TYPHIMURIUM, Strain/Indicator: TA100, Metabolic Activation: S-9, Method: STANDARD PLATE): inactive; negative
mutagenic call (Test System: AMES SALMONELLA TYPHIMURIUM, Strain/Indicator: TA1537, Metabolic Activation: NONE, Method: STANDARD PLATE): inactive; negative
mutagenic call (Test System: AMES SALMONELLA TYPHIMURIUM, Strain/Indicator: TA1537, Metabolic Activation: S-9, Method: STANDARD PLATE): inactive; negative
